Here are results for 16 compounds from patent US8691865B2 (AbbVie Inc., priority 2008, dated 2014).

pIC50: −log10 of the molar value.

The pIC50 is the IC50 on a negative log10 scale, so that one unit is a factor of ten.

The test system of assay [1] is Sprague Dawley rats. Put plainly: Capsaicin induced secondary mechanical hyperalgesia model. It is filed as in vivo. Particulars: po, 1 h, read-out: % inhibition @ 30 mg/kg p.o.; 30 mg/kg p.o. 60 minutes before testing; SMH measured 180 minutes after capsaicin; rat. On the procedure:
(ii) In Vivo Data—Capsaicin Induced Secondary Mechanical Hyperalgesia Model:
Sprague Dawley rats were briefly restrained, and capsaicin was administered at 10 μg in 10 μL of vehicle by intraplantar injection into the center of the right hind paw. Secondary mechanical hyperalgesia (SMH) was measured at the heel away from the site of injection 180 minutes following capsaicin exposure. Compounds and gabapentin (positive control), were administered p.o. 60 minutes before testing (2 hours after capsaicin) or i.p. 30 minutes before testing (2.5 hours after capsaicin). SMH was measured using calibrated von Frey filaments (Stoelting, Woodale, Ill.). Following the 1 hour habituation in the testing room, rats were moved to individual plexiglass chambers that sit on top of a wire mesh to allow for access for stimulation of the plantar surface of the hind paws. Rats were allowed to acclimate to the new chambers for 15 minutes before the onset of testing. The paw withdrawal threshold was determined by increasing and decreasing stimulus intensity (force: g) and calculated using Dixon's up-down method (Chaplan, S. R.; Bach, F. W.; Pogrel, J. W.; Chung, J. M.; Yaksh, T. L.; J. Neuroscience Methods 1994, 53(1), 55-63.). The filaments (maximum force of 15.0 g) were held in place for 8 seconds or until there was a withdrawal response from the mechanical stimulation.

Assay [2] addresses human Cav2.2 (Homo sapiens, UniProt Q00975). Put plainly: Assessment of calcium channel activity using FLIPR (Ca2+ influx in IMR32 cells). It is filed as cell-based. An outline of the steps:
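Human neuroblastoma IMR32 cells were seeded at 1−1.2×10^5 cells/well and cultured 48 h at 37 °C before FLIPR calcium influx measurement. Percent inhibition at each concentration was calculated against the no-inhibitor signal, and IC50 came from sigmoidal dose-response fits.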

Assay [3] deals with Sprague Dawley rats. Description: Analgesic effect against neuropathic pain, Bennett model (chronic constriction injury). It is filed as in vivo. Particulars: Rattus norvegicus, 1 h; 30 mg/kg po; mechanical allodynia 60 minutes after administration; CCI rats; read-out: % MPE. On the procedure: (iii) In Vivo Data—Determination of Analgesic Effect Against Neuropathic Pain—Bennett Model
Animals were prepared for testing, by use of a surgical procedure that induces neuropathic pain in one paw. IACUC guidelines for rodent survival surgery are followed. All surgical procedures are conducted on a clean, uncluttered surgical station. The area is wiped with a 70% ethanol solution before and after use. All instruments are sterilized by either autoclave or chemical sterilant (such as 2% glutaraldehyde >10 hr). Surgeons wear sterile gloves (for the initial procedure), clean lab coat or scrubs, hairnet or cap, and a half-mask respirator (when not working under a hood). Surgeons thoroughly wash their hands prior to donning sterile gloves. Gloves are disinfected in-between animals by cleansing with povidone iodine, chlorhexidine or 70% alcohol for at least 30 seconds. If multiple surgeries are performed, the instruments are cleaned and sterilized between procedures with hot glass beads (>10 seconds). To prevent thermal or chemical burns, the instruments are cooled by rinsing in sterile saline before use.
To minimize post-operative dehydration/maintain blood volume during the surgery, warmed sterile saline or Lactate Ringers solution at 10-15 mL/kg is administered subcutaneously immediately before or after surgery. This facilitates better renal function and presumably anesthesia product excretion post surgery. For all surgical procedures, anesthesia is induced with 4-5% isoflurane. Anesthesia is be maintained during surgery with 1-3% isoflurane. Following induction, the surgical site is carefully shaved and the exposed area is aseptically prepared with povidone-iodine scrub solution and 70% ethanol 2-3 times.
After site sterilization and anesthetic procedures outline above are completed, a 1.5 cm incision is made at the mid-thigh level to expose the biceps femoris and gluteous superficialis (right side), which are then separated by blunt dissection. The common sciatic nerve is exposed, isolated, and loosely ligated by four 5-0 chromic gut ligatures with <1 mm spacing between each. The surgical site is closed in layers—muscle is closed with 6.0 absorbable sutures, and the skin closed with wound clips. Animals are allowed to recover on a warming plate and are returned to their home cages when fully ambulatory. Animals are not be used for testing until at least 10 days following surgery.
Filament strengths used are: 0.4, 0.6, 1.0, 2, 4, 6, 8, and 15 g. […] Filaments are applied perpendicular to the mid-plantar paw surface with enough force to cause slight buckling and held in place for 6-8 seconds. Positive responses include an abrupt withdrawal of the paw from the stimulus or flinching behavior immediately following removal of the stimulus. The maximum force applied will be 15 g. […] All compounds were orally administered in 10% dimethyl sulfoxide/polyethylene glycol at a volume of 2.0 mL/kg, and mechanical allodynia was determined 60 minutes following compound administration. Data are reported as log g values and the percentage of maximum possible effect (% MPE) is calculated using log g values with the formula: % MPE=(log [observed PWT in grams]−log [mean PWT vehicle])/(log [15]−log [mean PWT vehicle])*100 All statistical procedures are run on log g values.

Chain of human Cav2.2 (Q00975 whole entry): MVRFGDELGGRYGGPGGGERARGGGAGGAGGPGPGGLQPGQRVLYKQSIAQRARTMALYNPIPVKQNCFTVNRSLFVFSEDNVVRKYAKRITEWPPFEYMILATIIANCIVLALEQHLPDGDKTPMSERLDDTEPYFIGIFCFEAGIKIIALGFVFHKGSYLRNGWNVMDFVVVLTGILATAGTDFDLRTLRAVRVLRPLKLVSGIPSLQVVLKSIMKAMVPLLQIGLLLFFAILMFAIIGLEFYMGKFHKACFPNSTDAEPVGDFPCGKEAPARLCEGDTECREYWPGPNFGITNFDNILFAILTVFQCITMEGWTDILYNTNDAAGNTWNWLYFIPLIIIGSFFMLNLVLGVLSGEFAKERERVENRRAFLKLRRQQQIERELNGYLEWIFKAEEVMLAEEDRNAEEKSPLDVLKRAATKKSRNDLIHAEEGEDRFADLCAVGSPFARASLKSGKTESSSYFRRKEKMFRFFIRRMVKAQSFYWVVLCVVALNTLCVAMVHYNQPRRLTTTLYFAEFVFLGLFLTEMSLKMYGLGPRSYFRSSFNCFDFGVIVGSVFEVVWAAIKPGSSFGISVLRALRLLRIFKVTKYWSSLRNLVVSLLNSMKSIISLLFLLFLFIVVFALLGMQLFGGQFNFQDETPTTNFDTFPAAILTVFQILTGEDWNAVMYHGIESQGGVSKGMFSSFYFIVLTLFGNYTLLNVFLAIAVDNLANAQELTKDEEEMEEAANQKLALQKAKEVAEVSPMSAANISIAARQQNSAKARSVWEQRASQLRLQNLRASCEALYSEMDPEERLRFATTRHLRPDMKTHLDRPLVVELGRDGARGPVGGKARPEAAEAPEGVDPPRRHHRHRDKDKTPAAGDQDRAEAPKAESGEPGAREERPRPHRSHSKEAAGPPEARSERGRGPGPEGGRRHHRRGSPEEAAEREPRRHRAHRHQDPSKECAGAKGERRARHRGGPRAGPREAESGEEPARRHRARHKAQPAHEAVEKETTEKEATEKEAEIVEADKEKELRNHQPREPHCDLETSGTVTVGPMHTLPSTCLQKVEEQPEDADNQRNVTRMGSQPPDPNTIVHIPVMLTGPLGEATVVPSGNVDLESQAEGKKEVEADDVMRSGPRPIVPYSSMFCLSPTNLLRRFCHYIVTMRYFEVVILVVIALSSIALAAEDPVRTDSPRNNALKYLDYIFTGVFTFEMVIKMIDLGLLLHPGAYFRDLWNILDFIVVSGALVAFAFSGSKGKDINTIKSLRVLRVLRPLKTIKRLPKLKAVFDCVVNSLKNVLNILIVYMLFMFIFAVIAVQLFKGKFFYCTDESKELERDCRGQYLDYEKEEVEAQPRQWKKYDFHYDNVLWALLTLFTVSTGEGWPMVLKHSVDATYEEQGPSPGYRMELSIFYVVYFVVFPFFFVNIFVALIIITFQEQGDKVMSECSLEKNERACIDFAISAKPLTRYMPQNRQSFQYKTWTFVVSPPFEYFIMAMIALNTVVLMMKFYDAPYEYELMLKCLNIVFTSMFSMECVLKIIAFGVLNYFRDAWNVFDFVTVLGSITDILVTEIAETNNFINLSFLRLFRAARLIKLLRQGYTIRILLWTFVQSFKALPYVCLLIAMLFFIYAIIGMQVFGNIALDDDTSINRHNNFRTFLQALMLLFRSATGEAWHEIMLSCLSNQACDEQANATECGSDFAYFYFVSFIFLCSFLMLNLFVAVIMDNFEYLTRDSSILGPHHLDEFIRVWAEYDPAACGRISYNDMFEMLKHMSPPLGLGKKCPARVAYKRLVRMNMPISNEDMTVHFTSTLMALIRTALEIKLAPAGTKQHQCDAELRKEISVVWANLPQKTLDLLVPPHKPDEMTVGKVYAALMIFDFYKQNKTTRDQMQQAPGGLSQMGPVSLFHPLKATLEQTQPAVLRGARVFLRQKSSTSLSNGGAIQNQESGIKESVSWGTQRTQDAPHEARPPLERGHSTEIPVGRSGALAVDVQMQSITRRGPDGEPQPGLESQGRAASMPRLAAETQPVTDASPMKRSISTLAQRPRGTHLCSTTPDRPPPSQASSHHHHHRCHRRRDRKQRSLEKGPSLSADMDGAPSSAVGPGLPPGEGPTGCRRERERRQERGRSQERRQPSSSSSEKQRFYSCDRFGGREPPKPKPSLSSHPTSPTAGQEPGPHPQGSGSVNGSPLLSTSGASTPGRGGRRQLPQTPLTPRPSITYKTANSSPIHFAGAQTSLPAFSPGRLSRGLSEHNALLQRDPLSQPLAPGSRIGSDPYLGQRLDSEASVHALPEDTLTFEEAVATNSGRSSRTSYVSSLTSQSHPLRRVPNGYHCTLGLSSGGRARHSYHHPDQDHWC
Chain of human Cav2.2 (P54289 25-956 partner limits assumed): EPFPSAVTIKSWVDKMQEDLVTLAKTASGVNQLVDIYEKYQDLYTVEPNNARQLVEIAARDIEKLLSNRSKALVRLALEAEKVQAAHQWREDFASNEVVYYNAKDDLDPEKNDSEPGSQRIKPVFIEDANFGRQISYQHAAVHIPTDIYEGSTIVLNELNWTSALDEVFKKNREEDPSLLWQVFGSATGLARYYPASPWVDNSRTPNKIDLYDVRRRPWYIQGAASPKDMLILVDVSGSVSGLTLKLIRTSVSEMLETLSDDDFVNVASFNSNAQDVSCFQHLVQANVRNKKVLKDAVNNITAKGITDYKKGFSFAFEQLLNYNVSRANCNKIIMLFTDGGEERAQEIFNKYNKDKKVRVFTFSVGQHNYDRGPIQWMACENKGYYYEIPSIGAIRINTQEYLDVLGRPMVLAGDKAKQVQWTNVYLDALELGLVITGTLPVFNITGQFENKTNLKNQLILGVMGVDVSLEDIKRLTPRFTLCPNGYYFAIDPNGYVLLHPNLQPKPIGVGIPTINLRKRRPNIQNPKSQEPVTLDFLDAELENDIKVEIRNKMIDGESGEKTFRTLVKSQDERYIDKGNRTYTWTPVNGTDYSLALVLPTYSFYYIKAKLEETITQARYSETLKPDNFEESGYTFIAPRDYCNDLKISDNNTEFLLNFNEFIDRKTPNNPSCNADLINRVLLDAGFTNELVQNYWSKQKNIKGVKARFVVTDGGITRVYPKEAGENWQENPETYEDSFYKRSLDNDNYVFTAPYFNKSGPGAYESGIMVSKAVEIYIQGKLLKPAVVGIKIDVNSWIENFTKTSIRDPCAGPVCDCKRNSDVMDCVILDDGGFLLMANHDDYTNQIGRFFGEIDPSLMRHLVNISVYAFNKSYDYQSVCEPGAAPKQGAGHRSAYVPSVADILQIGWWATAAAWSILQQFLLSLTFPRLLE
Chain of human Cav2.2 (P54289 957-1103 partner limits assumed): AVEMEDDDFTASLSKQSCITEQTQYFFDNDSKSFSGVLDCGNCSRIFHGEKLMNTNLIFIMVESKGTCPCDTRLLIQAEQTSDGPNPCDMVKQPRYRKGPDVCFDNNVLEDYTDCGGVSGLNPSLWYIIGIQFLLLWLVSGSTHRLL
Chain of human Cav2.2 (P54284 whole entry partner): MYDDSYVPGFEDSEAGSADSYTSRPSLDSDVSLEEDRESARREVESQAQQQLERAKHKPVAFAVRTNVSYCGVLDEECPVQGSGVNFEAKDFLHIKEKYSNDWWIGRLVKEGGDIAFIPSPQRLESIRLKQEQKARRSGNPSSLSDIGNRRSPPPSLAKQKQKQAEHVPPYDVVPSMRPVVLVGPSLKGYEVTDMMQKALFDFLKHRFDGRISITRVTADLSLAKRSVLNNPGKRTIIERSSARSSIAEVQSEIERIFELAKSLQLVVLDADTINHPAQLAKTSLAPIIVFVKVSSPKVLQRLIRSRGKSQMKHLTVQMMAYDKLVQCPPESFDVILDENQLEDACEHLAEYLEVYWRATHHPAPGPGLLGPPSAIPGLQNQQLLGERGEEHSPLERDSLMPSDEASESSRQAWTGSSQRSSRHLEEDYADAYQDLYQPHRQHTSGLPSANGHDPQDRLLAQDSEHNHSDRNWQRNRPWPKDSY

For `O=C(N[C@H]1CC[C@@H]2CN(c3cccc(C(F)(F)F)n3)C[C@@H]21)[C@@H]1CCCCN1` [Example 597, (2S)-N-{(3aR,4S,6aS)-2-[6-(trifluoromethyl)pyridin-2-yl]octahydrocyclopenta[c]pyrrol-4-yl}piperidine-2-carboxamide], the inhibition in vivo at 30 mg/kg in assay [1] stood at 54%. Moreover, the pIC50 in assay [2] was 5.89.

As for `CN[C@@H](CC(C)C)C(=O)N[C@H]1CC[C@@H]2CN(c3ccc(C(F)(F)F)cn3)C[C@@H]21` [Example 600, N^2-methyl-N-{(3aR,4S,6aS)-2-[5-(trifluoromethyl)pyridin-2-yl]octahydrocyclopenta[c]pyrrol-4-yl}-L-leucinamide], the figures for the inhibition in vivo at 30 mg/kg in assay [1] and in assay [3] were 63% and 40%, respectively. Further, the pIC50 in assay [2] is 5.54.

With `O=C(N[C@H]1CC[C@@H]2CN(c3cccc(C(F)(F)F)n3)C[C@@H]21)C1(O)CCCC1` [Example 573, 1-hydroxy-N-{(3aR,4S,6aS)-2-[6-(trifluoromethyl)pyridin-2-yl]octahydrocyclopenta[c]pyrrol-4-yl}cyclopentanecarboxamide], the inhibition in vivo at 30 mg/kg in assay [1] was found to be 57%. Besides, the pIC50 in assay [2] was 5.77.

As to `CN[C@@H](CC(C)C)C(=O)N[C@H]1CC[C@@H]2CN(c3cccc(OC(F)(F)F)c3)C[C@@H]21` [Example 625, N^2-methyl-N-{(3aR,4S,6aS)-2-[3-(trifluoromethoxy)phenyl]octahydrocyclopenta[c]pyrrol-4-yl}-L-leucinamide], in assay [2], the negative-log IC50 (pIC50) was 5.85. Further, the inhibition in vivo at 30 mg/kg in assay [3] turned out to be 42%.

Turning to `CCC[C@H](NC)C(=O)N[C@H]1CC[C@@H]2CN(c3cccc(OC(F)(F)F)c3)C[C@@H]21` [Example 718, N^2-methyl-N-{(3aR,4S,6aS)-2-[3-(trifluoromethoxy)phenyl]octahydrocyclopenta[c]pyrrol-4-yl}-L-norvalinamide], the pIC50 in assay [2] is 5.89. The inhibition in vivo at 30 mg/kg in assay [3] is 29%.

For `O=C(N[C@H]1CC[C@@H]2CN(c3cccc(C(F)(F)F)n3)C[C@@H]21)[C@@H]1C[C@@H]2CCCC[C@@H]2N1` [Example 593, (2S,3aS,7aS)-N-{(3aR,4S,6aS)-2-[6-(trifluoromethyl)pyridin-2-yl]octahydrocyclopenta[c]pyrrol-4-yl}octahydro-1H-indole-2-carboxamide], in assay [1], the inhibition in vivo at 30 mg/kg amounted to 76%. The pIC50 in assay [2] was 6.28.

As for `CN[C@@H](CC(C)(C)C)C(=O)N[C@H]1CC[C@@H]2CN(c3cccc(C(F)(F)F)n3)C[C@@H]21` [Example 587, N^2,4-dimethyl-N-{(3aR,4S,6aS)-2-[6-(trifluoromethyl)pyridin-2-yl]octahydrocyclopenta[c]pyrrol-4-yl}-L-leucinamide], the inhibition in vivo at 30 mg/kg in assay [1] amounted to 16%. For the same compound, in assay [2], the pIC50 is 6.41.

On to `CCC[C@H](NC)C(=O)N[C@H]1CC[C@@H]2CN(c3ccc(C(F)(F)F)cn3)C[C@@H]21` [Example 599, N^2-methyl-N-{(3aR,4S,6aS)-2-[5-(trifluoromethyl)pyridin-2-yl]octahydrocyclopenta[c]pyrrol-4-yl}-L-norvalinamide], for which, in assay [1], the inhibition in vivo at 30 mg/kg was found to be 32%. The pIC50 in assay [2] is 5.35.

For the compound `O=C(N[C@H]1CC[C@@H]2CN(c3cccc(C(F)(F)F)n3)C[C@@H]21)[C@@H]1C[C@@H](F)CN1` [Example 592, (4R)-4-fluoro-N-{(3aR,4S,6aS)-2-[6-(trifluoromethyl)pyridin-2-yl]octahydrocyclopenta[c]pyrrol-4-yl}-L-prolinamide], the inhibition in vivo at 30 mg/kg in assay [1] came out at 54%. In addition, the pIC50 in assay [2] is 5.35.

`CN[C@@H](CC(C)C)C(=O)N[C@H]1CC[C@@H]2CN(c3ccc(OC(F)(F)F)cc3)C[C@@H]21` [Example 624, N^2-methyl-N-{(3aR,4S,6aS)-2-[4-(trifluoromethoxy)phenyl]octahydrocyclopenta[c]pyrrol-4-yl}-L-leucinamide]: the pIC50 in assay [2] is 5.31. Besides, the inhibition in vivo at 30 mg/kg in assay [3] turned out to be 85%.

`CN[C@@H](CC(C)(C)C)C(=O)N1C[C@H]2CC[C@H](NC(=O)C(c3ccc(F)cc3)c3ccc(F)cc3)[C@H]2C1` [Example 461, N-[(3aR,4S,6aS)-2-(N,4-dimethyl-L-leucyl)octahydrocyclopenta[c]pyrrol-4-yl]-2,2-bis(4-fluorophenyl)acetamide]: the inhibition in vivo at 30 mg/kg in assay [1] worked out at 43%. Further, the pIC50 in assay [2] was 5.84.

As for `CN[C@@H](CC(C)C)C(=O)N[C@H]1CC[C@@H]2CN(c3cccc(C(F)F)c3)C[C@@H]21` [Example 729, N-{(3aR,4S,6aS)-2-[3-(difluoromethyl)phenyl]octahydrocyclopenta[c]pyrrol-4-yl}-N^2-methyl-L-leucinamide], the pIC50 in assay [2] is 5.97. Moreover, in assay [3], the inhibition in vivo at 30 mg/kg came out at 85%.

Take `CN[C@@H](CC(C)C)C(=O)N[C@H]1CC[C@@H]2CN(c3ccc(C(F)(F)F)nc3)C[C@@H]21` [Example 735, N^2-methyl-N-{(3aR,4S,6aS)-2-[6-(trifluoromethyl)pyridin-3-yl]octahydrocyclopenta[c]pyrrol-4-yl}-L-leucinamide]: the pIC50 in assay [2] is 5.44. Further, in assay [3], the inhibition in vivo at 30 mg/kg was 60%.

For `O=C(N[C@H]1CC[C@@H]2CN(c3cccc(OC(F)(F)F)c3)C[C@@H]21)[C@@H]1C[C@@H](F)CN1` [Example 627, (4R)-4-fluoro-N-{(3aR,4S,6aS)-2-[3-(trifluoromethoxy)phenyl]octahydrocyclopenta[c]pyrrol-4-yl}-L-prolinamide], the pIC50 in assay [2] is 5.57. For the same compound, the inhibition in vivo at 30 mg/kg in assay [3] worked out at 54%.

Turning to `CN[C@@H](CC(C)C)C(=O)N[C@H]1CC[C@@H]2CN(c3nccc(C(F)(F)F)n3)C[C@@H]21` [Example 722, N^2-methyl-N-{(3aR,4S,6aS)-2-[4-(trifluoromethyl)pyrimidin-2-yl]octahydrocyclopenta[c]pyrrol-4-yl}-L-leucinamide], the pIC50 in assay [2] was 5.60. The inhibition in vivo at 30 mg/kg in assay [3] was 8%.

Take `O=C(N[C@H]1CC[C@@H]2CN(c3cccc(C(F)(F)F)n3)C[C@@H]21)[C@@H]1CCCN1` [Example 598, N-{(3aR,4S,6aS)-2-[6-(trifluoromethyl)pyridin-2-yl]octahydrocyclopenta[c]pyrrol-4-yl}-L-prolinamide]: in assay [1], the inhibition in vivo at 30 mg/kg was determined as 54%. In addition, the pIC50 in assay [2] is 5.59.
